Columns and labels:
Aβ42 [1] = test: Screening for γ-secretase-modulating activity, Method 1: Aβ42 sandwich ELISA in supernatant of SKNBE2 cells carrying APP 695 wild type (Tables 12a, 12b); assay type: cell-based
Method in brief: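 Aβ42 levels in the supernatant were measured by ELISA with 450 nm colorimetric read-out after 18 h compound exposure of wild-type APP695 SKNBE2 cells plated one day earlier. IC50 was fitted with a 4-parameter model, either with fixed top/bottom and a Hill slope of 1, or as averaged values from % of vehicle control; WST-1 was used to flag cytotoxicity.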

Aβtotal [2] = test: Demonstration of in vivo efficacy: Aβtotal lowering in brain after single oral dose (Table 13); conditions: mouse brain soluble fraction, mean, compared to untreated animals
Source text: (§1) To determine whether acute administration of an Aβ42 lowering agent would reduce Aβ42 levels in vivo, non-transgenic rodents, e.g. mice or rats were used. Alternatively, two to three month old Tg2576 mice expressing APP695 containing the “Swedish” variant can be used or a transgenic mouse model developed by Dr. Fred Van Leuven (K. U. Leuven, Belgium) and co-workers, with neuron-specific expression of a clinical mutant of the human amyloid precursor protein [V717I] (Moechars et al., 1999 J. Biol. Chem. 274, 6483). Young transgenic mice have high levels of Aβ in the brain but no detectable Aβ deposition. At approximately 6-8 months of age, the transgenic mice start to display spontaneous, progressive accumulation of β-amyloid (Aβ) in the brain, eventually resulting in amyloid plaques within the subiculum, hippocampus and cortex. Animals treated with the Aβ42 lowering agent were examined and compared to those untreated or treated with vehicle and brain levels of soluble Aβ42 and total Aβ would be quantitated by standard techniques, for example, using ELISA. Treatment periods varied from hours to days and were adjusted based on the results of the Aβ42 lowering once a time course of onset of effect could be established.
(§2) A typical protocol for measuring Aβ42 lowering in vivo is shown but it is only one of many variations that could be used to optimize the levels of detectable Aβ. For example, Aβ42 lowering compounds were formulated in 20% of Captisol® (a sulfobutyl ether of β-cyclodextrin) in water or 20% hydroxypropyl β cyclodextrin. The Aβ42 lowering agents were administered as a single oral dose or by any acceptable route of administration to overnight fasted animals. After four hours, the animals were sacrificed and Aβ42 levels were analysed.
(§3) Blood was collected by decapitation and exsanguinations in EDTA-treated collection tubes. Blood was centrifuged at 1900 g for 10 minutes at 4° C. and the plasma recovered and flash frozen for later analysis. The brain was removed from the cranium and hindbrain. The cerebellum was removed and the left and right hemisphere were separated. The left hemisphere was stored at −18° C. for quantitative analysis of test compound levels. The right hemisphere was rinsed with phosphate-buffered saline (PBS) buffer and immediately frozen on dry ice and stored at −80° C. until homogenization for biochemical assays.
Mouse brains were resuspended in 10 volumes of 0.4% DEA (diethylamine)/50 mM NaCl pH 10 (for non-transgenic animals) or 0.1% 3-[3-cholamidopropyl)-dimethyl-ammonio]-1-propanesulfonate (CHAPS) in tris buffered saline (TBS) (for transgenic animals) containing protease inhibitors (Roche-11873580001 or 04693159001) per gram of tissue, e.g. for 0.158 g brain, add 1.58 ml of 0.4% DEA. All samples were sonicated for 30 seconds on ice at 20% power output (pulse mode). Homogenates were centrifuged at 221.300×g for 50 min. The resulting high speed supernatants were then transferred to fresh tubes and were optionally further purified before the next step. A portion of the supernatant was neutralized with 10% 0.5 M Tris-HCl and this was used to quantify Aβtotal. […]
In this model at least 20% Aβ42 lowering compared to untreated animals would be advantageous.

Aβtotal [3] = test: Screening for γ-secretase-modulating activity, Method 1: Aβtotal sandwich ELISA in supernatant of SKNBE2 cells carrying APP 695 wild type (Tables 12a, 12b); assay type: cell-based
Method in brief: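 Aβtotal in conditioned medium was measured by 6E10/biotin-4G8 sandwich ELISA with fluorogenic peroxidase read-out. Cells were wild-type APP 695 SKNBE2, treated 18 hours in glutamine-supplemented Ultraculture. IC50 came from 4-parameter fits of inhibition, or percent of control, against concentration; toxicity was checked by WST-1.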

Aβ42 [4] = test: Demonstration of in vivo efficacy: Aβ42 lowering in brain after single oral dose (Table 13); conditions: mouse brain soluble fraction, ELISA, mean, compared to untreated animals
Source text: as §1, §2, §3
Mouse brains were resuspended in 10 volumes of 0.4% DEA (diethylamine)/50 mM NaCl pH 10 (for non-transgenic animals) or 0.1% 3-[3-cholamidopropyl)-dimethyl-ammonio]-1-propanesulfonate (CHAPS) in tris buffered saline (TBS) (for transgenic animals) containing protease inhibitors (Roche-11873580001 or 04693159001) per gram of tissue, e.g. for 0.158 g brain, add 1.58 ml of 0.4% DEA. All samples were sonicated for 30 seconds on ice at 20% power output (pulse mode). Homogenates were centrifuged at 221.300×g for 50 min. The resulting high speed supernatants were then transferred to fresh tubes and were optionally further purified before the next step. A portion of the supernatant was neutralized with 10% 0.5 M Tris-HCl and this was used to quantify Aβtotal.
The obtained supernatants were purified with Water Oasis HLB reverse phase columns (Waters Corp., Milford, Mass.) to remove non-specific immunoreactive material from the brain lysates prior subsequent Aβ detection. Using a vacuum manifold, all solutions were passed through the columns at a rate of approximately 1 ml per minute, so the vacuum pressure was adjusted accordingly throughout the procedure. Columns were preconditioned with 1 ml of 100% MeOH, before equilibration with 1 ml of H2O. Non-neutralized brain lysates were loaded onto the columns. The loaded samples were then washed twice with the first wash performed with 1 ml of 5% MeOH, and the second wash with 1 ml of 30% MeOH. Finally, the Aβ was eluted from the columns and into 100×30 mm glass tubes, with a solution of 90% MeOH with 2% NH4OH. […]

Aβ42 [5] = test: Screening for γ-secretase-modulating activity, Method 2: Aβ42 Alphalisa in supernatant of SKNBE2 cells carrying APP 695 wild type (Table 12c); assay type: cell-based; conditions: Method 2, Table 12c, incubated overnight
Description: (§4) Screening was carried out using SKNBE2 cells carrying the APP 695—wild type, grown in Dulbecco's Modified Eagle's Medium/Nutrient mixture F-12 (DMEM/NUT-mix F-12) (HAM) provided by Invitrogen (cat no. 10371-029) containing 5% Serum/Fe supplemented with 1% non-essential amino acids, 1-glutamine 2 mM, Hepes 15 mM, penicillin 50 U/ml (units/ml) en streptomycin 50 μg/ml. Cells were grown to near confluency.
(§5) The screening was performed using a modification of the assay as described in Citron et al (1997) Nature Medicine 3: 67. Briefly, cells were plated in a 384-well plate at 10^4 cells/well in Ultraculture (Lonza, BE12-725F) supplemented with 1% glutamine (Invitrogen, 25030-024), 1% non-essential amino acid (NEAA), penicillin 50 U/ml en streptomycin 50 μg/ml in the presence of test compound at different test concentrations. The cell/compound mixture was incubated overnight at 37° C., 5% CO2, The next day the media were assayed by two sandwich immuno-assays, for Aβ42 and Aβtotal.
(§6) Aβtotal and Aβ42 concentrations were quantified in the cell supernatant using the Aphalisa technology (Perkin Elmer). Alphalisa is a sandwich assay using biotinylated antibody attached to streptavidin coated donorbeads and antibody conjugated to acceptor beads. In the presence of antigen, the beads come into close proximity. The excitation of the donor beads provokes the release of singlet oxygen molecules that trigger a cascade of energy transfer in the acceptor beads, resulting in light emission. To quantify the amount of Aβ42 in the cell supernatant, monoclonal antibody specific to the C-terminus of Aβ42 (JRF/cAβ42/26) was coupled to the receptor beads and biotinylated antibody specific to the N-terminus of Aβ (JRF/AβN/25) was used to react with the donor beads. To quantify the amount of Aβtotal in the cell supernatant, monoclonal antibody specific to the N-terminus of Aβ (JRF/AβN/25) was coupled to the receptor beads and biotinylated antibody specific to the mid region of Aβ (biotinylated 4G8) was used to react with the donor beads.
(§7) To obtain the values reported in Table 12c, the data are calculated as percentage of the maximum amount of amyloid Beta 42 measured in the absence of the test compound. The sigmoidal dose response curves were analyzed using non-linear regression analysis with percentage of the control plotted against the log concentration of the compound. A 4-parameter equation was used to determine the IC50.

Aβtotal [6] = test: Screening for γ-secretase-modulating activity, Method 2: Aβtotal Alphalisa in supernatant of SKNBE2 cells carrying APP 695 wild type (Table 12c); assay type: cell-based; conditions: Method 2, Table 12c, incubated overnight
Description: as §4, §5, §6, §7

[7] = Homo sapiens, Table 12b, Method 1, SKNBE2 cells carrying APP 695 wild type, cell supernatant ELISA, averaged IC50 values, percentage of control vs log concentration
[8] = Homo sapiens, Table 12b, Method 1, SKNBE2 cells carrying APP 695 wild type, cell supernatant ELISA, averaged IC50 values
[9] = Table 12b, Method 1, SKNBE2 cells carrying APP 695 wild type, cell supernatant ELISA, averaged IC50 values, percentage of control vs log concentration
[10] = Table 12b, Method 1, SKNBE2 cells carrying APP 695 wild type, cell supernatant ELISA, averaged IC50 values
[11] = Method 1, Table 12a, SKNBE2 cells carrying APP 695 wild type, compounds 18 hours, ELISA, curve top and bottom fixed to 100 and 0, hill slope 1

Row | Compound | IC50 (Aβ42 [1]; [7]) [nM] | IC50 (Aβtotal [3]; [8]) [nM] | IC50 (Aβ42 [1]; [9]) [nM] | IC50 (Aβtotal [3]; [10]) [nM] | IC50 (Aβ42 [5]) [nM] | IC50 (Aβtotal [6]) [nM] | IC50 (Aβ42 [5]; Homo sapiens) [nM] | IC50 (Aβtotal [6]; Homo sapiens) [nM] | further results
1 | Cc1ncn(-c2ccc(Nc3cccn4cc(-c5cc(C(F)(F)F)ccc5C)nc34)cc2F)n1 [Compound 74] | 123 | > 3020 |  |  |  |  |  |  | Aβtotal (% Ctrl)_Mean (Aβtotal [2]): 102 % Ctrl; Aβ42 (% Ctrl)_Mean (Aβ42 [4]): 95 % Ctrl
2 | Cc1ncn(-c2ccc(Nc3cccn4cc(-c5ccccc5C)nc34)cn2)n1 [Compound 86] |  |  | 117 | > 10000 |  |  |  |  | Aβtotal (% Ctrl)_Mean (Aβtotal [2]): 96 % Ctrl; Aβ42 (% Ctrl)_Mean (Aβ42 [4]): 86 % Ctrl
3 | CCCc1nc2c(Nc3ccc(-n4cnc(C)c4)c(OC)c3)cccn2c1CC [Compound 10] |  |  | 51 | > 3020 |  |  |  |  | IC50 (Aβ42 [1]; [11]): 54 nM; Aβtotal (% Ctrl)_Mean (Aβtotal [2]): 104 % Ctrl; IC50 (Aβtotal [3]; [11]): > 3000 nM; Aβ42 (% Ctrl)_Mean (Aβ42 [4]): 67 % Ctrl
4 | Cc1cn(-c2ccc(Nc3cccn4cc(C5CC5)nc34)cc2F)cn1 [Compound 120] | 589 | > 30200 |  |  |  |  | 363 | > 10000 | 
5 | COCCCc1c(-c2ccc(F)cc2)nc2c(Nc3ccc(-n4cnc(C)n4)c(OC)c3)cccn12 [Compound 129] |  |  | 46 | > 10000 | 74 | > 10000 |  |  | 
6 | COCc1c(-c2ccc(F)cc2)nc2c(Nc3ccc(-n4cnc(C)n4)c(OC)c3)cccn12 [Compound 125] |  |  | 30 | > 3020 | 51 | 7940 |  |  | 
7 | COc1cc(Nc2cccn3cc(-c4cc(C#N)ccc4C)nc23)ccc1-n1cnc(C)n1 [Compound 135] | 631 | > 10000 |  |  |  |  | 102 | > 10000 | 
8 | COc1cc(Nc2cccn3cc(CC(F)(F)F)nc23)ccc1-n1cnc(C)c1 [Compound 109] |  |  | 15 | > 3020 | 60 | > 10000 |  |  | 
9 | COc1cc(Nc2cccn3cc(C4CCOCC4)nc23)ccc1-n1cnc(C)n1 [Compound 136] | 676 | > 30200 |  |  |  |  | 813 | > 10000 | 
10 | Cc1cn(-c2ccc(Nc3cccn4cc(C5CCOCC5)nc34)cc2F)cn1 [Compound 118] | 331 | > 3020 |  |  |  |  | 372 | > 10000 | 
11 | COCc1c(-c2ccccc2Cl)nc2c(Nc3ccc(-n4cnc(C)c4)c(F)c3)cccn12 [Compound 103] |  |  | 13 | > 3020 | 19 | > 10000 |  |  | 
12 | CCOC(=O)c1cn2cccc(Nc3ccc(-n4cnc(C)c4)c(OC)c3)c2n1 [Compound 113] |  |  | 38 | > 3020 | 145 | > 10000 |  |  | 
13 | COc1cc(Nc2cccn3cc(CC4CCOCC4)nc23)ccc1-n1cnc(C)n1 [Compound 137] | 1380 | > 3020 |  |  |  |  | 871 | > 10000 | 

More lines, main results first:

Row | IC50 (Aβ42 [1]; [7]) [nM] | IC50 (Aβtotal [3]; [8]) [nM] | IC50 (Aβ42 [1]; [9]) [nM] | IC50 (Aβtotal [3]; [10]) [nM] | IC50 (Aβ42 [5]) [nM] | IC50 (Aβtotal [6]) [nM] | IC50 (Aβ42 [5]; Homo sapiens) [nM] | IC50 (Aβtotal [6]; Homo sapiens) [nM] | Compound | further results
14 |  |  | > 3020 | > 3020 | > 10000 | > 10000 |  |  | Cc1cn(-c2ccc(Nc3cc(C(F)(F)F)nn4cc(C)nc34)cc2F)cn1 [Compound 173] | 
15 |  |  | 100 | > 3020 | 120 | > 10000 |  |  | COc1nc(Nc2cccn3cc(C)nc23)ccc1-n1cnc(C)c1 [Compound 144] | 
16 |  |  | 513 | > 3020 | 219 | > 10000 |  |  | COc1cc(Nc2cc(C(F)(F)F)cn3cc(C(C)(C)O)nc23)ccc1-n1cnc(C)c1 [Compound 151] | 
17 | 324 | > 10000 |  |  |  |  | 107 | 8320 | COc1cc(Nc2nccn3cc(-c4ccc(F)cc4C)nc23)ccc1-n1cnc(C)n1 [Compound 176] | 
18 |  |  | 41 | > 3020 | 72 | 5250 |  |  | COc1cc(Nc2nccn3cc(-c4ccc(F)cc4)nc23)ccc1-n1cnc(C)c1 [Compound 175] | 
19 |  |  | 102 | > 3020 | 50 | 7410 |  |  | COc1cc(Nc2cc(Cl)nn3cc(-c4cc(F)ccc4C)nc23)ccc1-n1cnc(C)c1 [Compound 157] | 
20 |  |  | 3020 | > 3020 | 380 | 10000 |  |  | Cc1cn(-c2ccc(Nc3cc(C(F)(F)F)nn4cc(C5CCOCC5)nc34)cc2F)cn1 [Compound 168] | 

— patent US8546440B2, “Substituted bicyclic imidazole derivatives as gamma secretase modulators” (Janssen Pharmaceuticals, Inc., priority 2008, dated 2013)
